Laboratory results as given in patent US20160354429A1, “Use of Melanocortins to Treat Insulin Sensitivity” (Ipsen Pharma S.A.S., priority 2007, published 2016).
Bridge positions count the residues as written; N and C are the ends. Square brackets hold non-standard residues; d marks the D form. Peptide text beside a SMILES is read from it. GABA = NCCCC(=O)O

Experiments:
[1] = target: T1, hMC1-R (Homo sapiens, UniProt Q01726); assay: Radioligand binding assay, hMC1-R; conditions: competition with [125I]-NDP-α-MSH, CHO-K1 cell membranes
T1 construct: expressed in transfected cells

[2] = target: T2, hMC3-R (Homo sapiens, UniProt P41968); assay: Radioligand binding assay, hMC3-R; conditions: competition with [125I]-NDP-α-MSH, CHO-K1 cell membranes
T2 construct: expressed in transfected cells

[3] = target: T3, hMC5-R (Homo sapiens, UniProt P33032); assay: Radioligand binding assay, hMC5-R; conditions: competition with [125I]-NDP-α-MSH, CHO-K1 cell membranes
T3 construct: expressed in transfected cells
Procedure: Cellular membranes used for the in vitro receptor binding assays were obtained from transgenic CHO-K1 cells stably expressing hMC-R receptor subtypes 1, 3, 4 or 5. […] The pellets were resuspended in the same buffer and centrifuged at 50,000 g for 10 minutes at approximately 4° C. The washed pellets containing the cellular membranes were stored at approximately −80° C.
Filters were washed three times with 50 mM Tris-HCl at pH 7.4 at a temperature of approximately 0-4° C. and then assayed for radioactivity using a Packard Topcount® scintillation counter. Binding data were analyzed by computer-assisted non-linear regression analysis (XL fit; IDBS).

[4] = target: T4, hMC4-R (Homo sapiens, UniProt P32245); assay: Radioligand binding assay, hMC4-R; conditions: competition with [125I]-NDP-α-MSH, CHO-K1 cell membranes
T4 construct: expressed in transfected cells

[5] = target: T3, hMC5-R; assay: cyclic AMP bioassay, hMC5-R; type: cell-based
Procedure: Intracellular cyclic AMP (cAMP) levels were determined by an electrochemiluminescence (ECL) assay (Meso Scale Discovery®, Gaithersburg, Md.; referred to hereinafter as MSD). […] Transgenic CHO-K1 cells stably expressing hMC receptor subtypes 1, 3, 4 or 5 were dispensed at a density of approximately 7,000 cells/well in 384-well Multi-Array® plates (MSD) containing integrated carbon electrodes and coated with anti-cAMP antibody. Increasing concentrations of the test compounds were added and the cells were incubated for approximately 40 minutes at approximately 37° C. […] At the end of the second incubation period read buffer (Tris-buffered solution containing an ECL co-reactant and Triton X-100 at ph 7.8) was added and the cAMP levels in the cell lysates were immediately determined by ECL detection with a Sector Imager 6000 Reader® (MSD). Data were analyzed using a computer-assisted non-linear regression analysis (XL fit; IDBS) and reported as either an EC50 value or a Kb value.

T3 sequence (P33032 whole entry): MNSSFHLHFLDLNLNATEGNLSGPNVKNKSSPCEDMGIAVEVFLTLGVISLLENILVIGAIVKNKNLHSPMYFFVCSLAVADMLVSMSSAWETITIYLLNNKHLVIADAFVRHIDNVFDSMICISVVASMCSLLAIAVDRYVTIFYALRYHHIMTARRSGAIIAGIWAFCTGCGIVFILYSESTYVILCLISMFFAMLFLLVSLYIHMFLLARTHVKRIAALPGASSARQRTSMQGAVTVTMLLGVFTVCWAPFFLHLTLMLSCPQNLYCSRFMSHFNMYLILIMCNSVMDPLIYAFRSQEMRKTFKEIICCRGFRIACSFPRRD
T1 sequence (Q01726 whole entry): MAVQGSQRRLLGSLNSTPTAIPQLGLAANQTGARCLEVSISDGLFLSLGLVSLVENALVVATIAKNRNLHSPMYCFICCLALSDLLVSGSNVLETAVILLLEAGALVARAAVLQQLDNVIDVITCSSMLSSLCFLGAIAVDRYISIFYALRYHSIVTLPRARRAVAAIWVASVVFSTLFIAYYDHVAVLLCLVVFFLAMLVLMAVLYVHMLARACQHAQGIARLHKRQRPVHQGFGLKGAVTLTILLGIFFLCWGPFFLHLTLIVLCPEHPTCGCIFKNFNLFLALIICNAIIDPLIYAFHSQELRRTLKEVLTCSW
T2 sequence (P41968 whole entry): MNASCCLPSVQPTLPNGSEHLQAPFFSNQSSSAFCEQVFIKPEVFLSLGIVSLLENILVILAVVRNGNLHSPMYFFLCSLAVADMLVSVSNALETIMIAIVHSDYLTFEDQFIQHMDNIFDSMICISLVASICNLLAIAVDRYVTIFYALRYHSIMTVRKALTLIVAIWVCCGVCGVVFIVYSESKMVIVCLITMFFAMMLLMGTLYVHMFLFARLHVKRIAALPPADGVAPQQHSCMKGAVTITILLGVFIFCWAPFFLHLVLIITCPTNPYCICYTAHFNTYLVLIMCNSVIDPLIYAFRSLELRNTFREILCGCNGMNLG
T4 sequence (P32245 whole entry): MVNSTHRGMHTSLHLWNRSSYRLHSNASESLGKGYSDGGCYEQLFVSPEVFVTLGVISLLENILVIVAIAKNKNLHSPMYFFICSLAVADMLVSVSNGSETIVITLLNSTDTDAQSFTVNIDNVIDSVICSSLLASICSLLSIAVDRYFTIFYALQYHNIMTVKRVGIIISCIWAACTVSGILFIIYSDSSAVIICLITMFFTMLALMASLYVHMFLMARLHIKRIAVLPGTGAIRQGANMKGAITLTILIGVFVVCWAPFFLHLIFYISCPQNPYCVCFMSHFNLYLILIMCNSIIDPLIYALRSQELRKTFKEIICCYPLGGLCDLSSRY

| Structure (SMILES) | Ki [1] [nM] | Ki [2] [nM] | Ki [3] [nM] | Ki [4] [nM] | EC50 [5] [nM] |
| --- | --- | --- | --- | --- | --- |
| CCCC[C@H](NC(C)=O)C(=O)N[C@H]1CSSC[C@@H](C(N)=O)NC(=O)CCNC(=O)[C@H](Cc2c[nH]c3ccccc23)NC(=O)[C@H](CCCNC(=N)N)NC(=O)[C@@H](Cc2ccccc2)NC(=O)[C@H](Cc2c[nH]cn2)NC(=O)[C@@H](C)NC1=O [Ac-Nle-c(Cys-D-Ala-His-D-Phe-Arg-Trp-β-Ala-Cys)-NH2] | 0.995 |  |  |  |  |
| CC(=O)N[C@@H](Cc1ccccc1)C(=O)N[C@H]1CSSC[C@@H](C(N)=O)NC(=O)CCCNC(=O)[C@H](Cc2c[nH]c3ccccc23)NC(=O)[C@H](CCCNC(=N)N)NC(=O)[C@@H](Cc2ccccc2)NC(=O)[C@H](Cc2c[nH]cn2)NC1=O [Ac-Phe-c(Cys-His-D-Phe-Arg-Trp-Gaba-Cys)-NH2] (Ac-FCH[dF]RW[GABA]C-NH2; disulfide 2-8) | 0.254 | 18.5 | 0.714 | 2.13 |  |
| CC(=O)N[C@@H](CCCNC(=N)N)C(=O)N[C@H]1CSSC(C)(C)[C@@H](C(N)=O)NC(=O)[C@H](Cc2c[nH]c3ccccc23)NC(=O)[C@H](CCCNC(=N)N)NC(=O)[C@@H](Cc2ccccc2)NC(=O)[C@H](Cc2c[nH]cn2)NC(=O)[C@@H](C)NC1=O [Ac-Arg-c(Cys-D-Ala-His-D-Phe-Arg-Trp-Pen)-NH2] |  |  |  |  | ≥ 10000 |
